The text below walks through data of patent publication US8735584B2 (Merck Patent GmbH, priority 2008, dated 2014).

The test concerns the target T1, GST-Aurora A (Homo sapiens, UniProt O14965).
T1 construct: N-terminal GST fusion with full length Aurora A (1-403 amino acids); purchased Carna Biosciences 05-101
T1 sequence (O14965 1-403): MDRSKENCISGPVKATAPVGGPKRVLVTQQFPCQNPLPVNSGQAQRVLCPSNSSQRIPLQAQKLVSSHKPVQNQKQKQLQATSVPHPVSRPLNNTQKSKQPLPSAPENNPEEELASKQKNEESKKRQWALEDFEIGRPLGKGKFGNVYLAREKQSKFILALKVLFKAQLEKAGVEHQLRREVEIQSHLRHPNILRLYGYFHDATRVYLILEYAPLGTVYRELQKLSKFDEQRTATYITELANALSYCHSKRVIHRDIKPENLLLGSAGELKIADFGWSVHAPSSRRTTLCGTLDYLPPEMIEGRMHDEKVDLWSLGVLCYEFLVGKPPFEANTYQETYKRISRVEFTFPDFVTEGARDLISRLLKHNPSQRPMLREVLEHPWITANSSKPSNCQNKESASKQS
In words: Aurora A IC50, Caliper LC3000 mobility shift assay. The settings on record: LC3000 method; 15 uM ATP (the KM value); read-out: Aurora Kinase A Activity (IC50). In kind it is biochemical. The essentials: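 GST-tagged full-length Aurora A (0.067 ng/ul) with 15 uM ATP (KM) and 1 uM FITC-LRRASLG peptide in 100 mM HEPES pH 7.5, 1 mM MgCl2, 1 mM DTT, Brij-35; 90 min at 25 C, EDTA stop. Off-chip mobility shift read of substrate-to-product conversion; IC50 from sigmoidal dose-response.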
Usually IC50 stands for the concentration that inhibits the measured activity by half. Turning to `O=C(CN1CCC(Nc2ccnc3[nH]c(=O)c4ccccc4c23)CC1)NC1CC1` [Compound 488, N-Cyclopropyl-2-(4-(6-oxo-5,6-dihydrobenzo[c][1,8]naphthyridin-1-ylamino)piperidin-1-yl)acetamide], the IC50 was greater than 0.1 µM. With `CN(C)CCN(C)Cc1ccc2c(=O)[nH]c3nccc(Nc4ccc(NC(=O)c5ccccc5)cc4)c3c2c1` [Compound 292, N-(4-(9-(((2-(Dimethylamino)ethyl)(methyl)amino)methyl)-6-oxo-5,6-dihydrobenzo[c][1,8]naphthyridin-1-ylamino)phenyl)benzamide], the IC50 was in the range of 0.011 to 0.1 µM. Turning to `O=c1[nH]c2ncccc2c2cc(NCc3cccc4ccccc34)ccc12` [Example 45, 9-[(Naphthalen-1-ylmethyl)-amino]-5H-benzo[c][1,8]naphthyridin-6-one], the IC50 was greater than 0.1 µM.

For the molecule `O=C(Cc1ccccc1)Nc1ccc(Nc2ccnc3[nH]c(=O)c4ccccc4c23)cc1` [Compound 350, N-(4-(6-Oxo-5,6-dihydrobenzo[c][1,8]naphthyridin-1-ylamino)phenyl)-2-phenylacetamide], the IC50 was in the range of 0.011 to 0.1 µM. On to `O=C(CN1CCC(Nc2ccnc3[nH]c(=O)c4ccccc4c23)CC1)Nc1cccc(F)c1` [Compound 373, N-(3-Fluorophenyl)-2-(4-(6-oxo-5,6-dihydrobenzo[c][1,8]naphthyridin-1-ylamino)piperidin-1-yl)acetamide], for which the IC50 fell in the range of 0.011 to 0.1 µM. Regarding `O=C(Nc1ccc(Nc2ccnc3[nH]c(=O)c4c(O)cccc4c23)cc1)c1ccccc1` [Compound 446, N-[4-(7-Hydroxy-6-oxo-5,6-dihydro-benzo[c][1,8]naphthyridin-1-ylamino)-phenyl]-benzamide], the IC50 lay in the range of 0.011 to 0.1 µM. In the case of `CN(C)CCCNC(=O)c1cccc2c1c(=O)[nH]c1nccc(Nc3ccc(NC(=O)c4ccccc4)cc3)c12` [Compound 436, 1-(4-Benzoylamino-phenylamino)-6-oxo-5,6-dihydro-benzo[c][1,8]naphthyridine-7-carboxylic acid (3-dimethylamino-propyl)-amide] it was 0.011 to 0.1 µM. In the case of `O=C(Nc1ccc(Oc2ccnc3[nH]c(=O)c4ccccc4c23)cc1)c1ccccc1` [Compound 405, N-[4-(6-Oxo-5,6-dihydro-benzo[c][1,8]naphthyridin-1-yloxy)-phenyl]-benzamide] it was 0.011 to 0.1 µM. Regarding `O=c1[nH]c2nccc(Nc3ccc(OCc4ccccc4)cc3)c2c2ccccc12` [Compound 329, 1-(4-(Benzyloxy)phenylamino)benzo[c][1,8]naphthyridin-6(5H)-one], the IC50 lay in the range of 0.011 to 0.1 µM. On to `O=c1[nH]c2ncccc2c2cc(NCc3cccnc3)ccc12` [Example 123, 9-[(Pyridin-3-ylmethyl)-amino]-5H-benzo[c][1,8]naphthyridin-6-one], for which the IC50 was greater than 0.1 µM. In the case of `O=C(Nc1ccc(Oc2ccnc3[nH]c(=O)c4ccccc4c23)c(F)c1)c1cc(Cl)cnc1Cl` [Example 183, 2,5-Dichloro-N-[3-fluoro-4-(6-oxo-5,6-dihydro-benzo[c][1,8]naphthyridin-1-yloxy)-phenyl]-nicotinamide] it was greater than 0.1 µM; in that of `Cc1ccccc1CNc1ccc2c(=O)[nH]c3ncccc3c2c1` [Example 46, 9-(2-Methyl-benzylamino)-5H-benzo[c][1,8]naphthyridin-6-one], greater than 0.1 µM; in that of `O=C1CCCN1CCCNc1ccc2c(=O)[nH]c3ncccc3c2c1` [Compound 479, 9-(3-(2-Oxopyrrolidin-1-yl)propylamino)benzo[c][1,8]naphthyridin-6(5H)-one], greater than 0.1 µM.

On to `O=C(Nc1ccc(Nc2ccnc3[nH]c(=O)c4ccccc4c23)c(F)c1)c1ccccc1` [Compound 321, N-(3-Fluoro-4-(6-oxo-5,6-dihydrobenzo[c][1,8]naphthyridin-1-ylamino)phenyl)benzamide], for which the IC50 was less than 0.011 µM.

`O=c1[nH]c2ncccc2c2cc(NCc3cccc(C(F)(F)F)c3)ccc12` [Example 69, 9-(3-Trifluoromethyl-benzylamino)-5H-benzo[c][1,8]naphthyridin-6-one]: the IC50 is 0.011 to 0.1 µM. As to `COc1cc2c(=O)[nH]c3nccc(Nc4ccc(NC(=O)c5ccc(F)cc5C(F)(F)F)cc4)c3c2cc1OC` [Compound 416, 4-Fluoro-N-[4-(8,9-dimethoxy-6-oxo-5,6-dihydro-benzo[c][1,8]naphthyridin-1-ylamino)-phenyl]-2-trifluoromethyl-benzamide], the IC50 is less than 0.011 µM. In the case of `COc1cccc(C#Cc2ccnc3[nH]c(=O)c4ccccc4c23)c1` [Example 160, 1-(3-Methoxy-phenylethynyl)-5H-benzo[c][1,8]naphthyridin-6-one], the IC50 is greater than 0.1 µM.

As to `CN(C)CCNC(=O)c1ccc2c(=O)[nH]c3nccc(Nc4ccc(NC(=O)c5ccc(F)c(F)c5)cc4)c3c2c1` [Compound 298, 1-(4-(3,4-Difluorobenzamido)phenylamino)-N-(2-(dimethylamino)ethyl)-6-oxo-5,6-dihydrobenzo[c][1,8]naphthyridine-9-carboxamide], the IC50 is less than 0.011 µM. In the case of `Clc1nc2ncccc2c2cc(NCc3ccccc3)ccc12` [Example 53, Benzyl-(6-chloro-benzo[c][1,8]naphthyridin-9-yl)-amine] it was greater than 0.1 µM.

`CCN(CCO)Cc1ccc2c(c1)c(=O)[nH]c1nccc(Nc3ccc(NC(=O)c4ccccc4)cc3)c12` [Compound 274, N-(4-(8-((Ethyl(2-hydroxyethyl)amino)methyl)-6-oxo-5,6-dihydrobenzo[c][1,8]naphthyridin-1-ylamino)phenyl)benzamide]: the IC50 is 0.011 to 0.1 µM. As for `O=C(Nc1ccc(Nc2ccnc3[nH]c(=O)c4ccccc4c23)cc1)c1cccc(F)c1` [Compound 381, 3-Fluoro-N-[4-(6-oxo-5,6-dihydro-benzo[c][1,8]naphthyridin-1-ylamino)-phenyl]-benzamide], the IC50 was less than 0.011 µM. Turning to `O=c1[nH]c2ncccc2c2cc(NCc3ccccc3Cl)ccc12` [Compound 470, 9-(2-Chlorobenzylamino)benzo[c][1,8]naphthyridin-6(5H)-one], the IC50 is 0.011 to 0.1 µM.

Regarding `O=C(Nc1ccc(Nc2ccnc3[nH]c(=O)c4ccccc4c23)cc1)C1(c2ccccc2)CCCC1` [Compound 494, N-(4-(6-Oxo-5,6-dihydrobenzo[c][1,8]naphthyridin-1-ylamino)phenyl)-1-phenylcyclopentanecarboxamide], the IC50 lay within 0.011 to 0.1 µM. `O=C(Nc1ccc(Nc2ccnc3[nH]c(=O)c4ccccc4c23)cc1)c1ccc(Cl)cc1Cl` [Compound 399, 2,4-Dichloro-N-[4-(6-oxo-5,6-dihydro-benzo[c][1,8]naphthyridin-1-ylamino)-phenyl]-benzamide]: the IC50 was less than 0.011 µM.

For the molecule `O=c1[nH]c2ncccc2c2cc(NCc3c(F)cccc3Cl)ccc12` [Compound 471, 9-(2-Chloro-6-fluorobenzylamino)benzo[c][1,8]naphthyridin-6(5H)-one], the IC50 was greater than 0.1 µM. Turning to `CN1CCN(c2ccc3c(=O)[nH]c4nccc(Nc5ccc(NC(=O)c6ccccc6)cc5)c4c3c2)CC1` [Compound 294, N-(4-(9-(4-methylpiperazin-1-yl)-6-oxo-5,6-dihydrobenzo[c][1,8]naphthyridin-1-ylamino)phenyl)benzamide], the IC50 fell in the range of 0.011 to 0.1 µM. In the case of `N#Cc1cccc(CNc2ccc3c(=O)[nH]c4ncccc4c3c2)c1` [Compound 463, 3-((6-Oxo-5,6-dihydrobenzo[c][1,8]naphthyridin-9-ylamino)methyl)benzonitrile] it was greater than 0.1 µM. In the case of `O=C(CC(F)(F)F)Nc1ccc(Nc2ccnc3[nH]c(=O)c4ccccc4c23)cc1` [Compound 349, 3,3,3-Trifluoro-N-(4-(6-oxo-5,6-dihydrobenzo[c][1,8]naphthyridin-1-ylamino)phenyl)propanamide] it was less than 0.011 µM; in that of `CN(C)C(=O)c1ccc2c(=O)[nH]c3nccc(Nc4ccc(NC(=O)c5ccccc5)cc4)c3c2c1` [Compound 283, 1-(4-Benzamidophenylamino)-N,N-dimethyl-6-oxo-5,6-dihydrobenzo[c][1,8]naphthyridine-9-carboxamide], 0.011 to 0.1 µM; in that of `O=C(Nc1ccc(Nc2ccnc3[nH]c(=O)c4ccccc4c23)cc1)C1CC1` [Compound 351, N-(4-(6-Oxo-5,6-dihydrobenzo[c][1,8]naphthyridin-1-ylamino)phenyl)cyclopropanecarboxamide], 0.011 to 0.1 µM.

Turning to `O=c1[nH]c2ncccc2c2cc(NCc3ccc(F)cc3C(F)(F)F)ccc12` [Compound 464, 9-(4-Fluoro-2-(trifluoromethyl)benzylamino)benzo[c][1,8]naphthyridin-6(5H)-one], the IC50 was greater than 0.1 µM. In the case of `CN1CCN(Cc2ccc3c(=O)[nH]c4nccc(Nc5ccc(NC(=O)c6ccccc6)cc5)c4c3c2)CC1` [Compound 291, N-(4-(9-((4-methylpiperazin-1-yl)methyl)-6-oxo-5,6-dihydrobenzo[c][1,8]naphthyridin-1-ylamino)phenyl)benzamide] it was less than 0.011 µM; in that of `O=C(O)c1ccc2c(=O)[nH]c3nccc(Nc4ccc(NC(=O)c5ccccc5)cc4)c3c2c1` [Compound 281, 1-(4-Benzamidophenylamino)-6-oxo-5,6-dihydrobenzo[c][1,8]naphthyridine-9-carboxylic acid], less than 0.011 µM.
